Among the data in patent US20240270762A1, “PENICILLIN-BINDING PROTEIN INHIBITORS” (priority 2021, published 2024) are EC50, IC50 and MIC values, retold here.

Each structure is given as a SMILES string. ≈ marks a conversion by molar mass, not a printed value.

Experiment [1] has as its target T1, PBP3 from Escherichia coli (K-12) (Escherichia coli, UniProt P0AD68).
T1 construct: made in house
The experiment can be described thus: Bocillin-FL fluorescence polarization competition binding, E. coli PBP3. In a few lines: (§1)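 Purified PBP was preincubated with inhibitor (E. coli PBP3 1.5 μM, 30 min; P. aeruginosa PBP3 0.75 μM, A. baumannii PBP3 0.2 μM and PBP1a 1 μM, 15 min), then Bocillin-FL (0.1 μM; 0.05 μM for PBP1a) added and FP read up to 60 min. EC50 = 50% loss of bound probe.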
In general terms: In fluorescence polarisation assays a small probe gives low polarisation when free and higher when bound to something large.

Experiment [2] concerns the target T2, PBP3 from Pseudomonas aeruginosa (PAO1) (Pseudomonas aeruginosa, UniProt G3XD46).
T2 construct: made in house
The experiment can be described thus: Bocillin-FL fluorescence polarization competition binding, P. aeruginosa PBP3. Conditions: Binding affinity to P. aeruginosa PBP3; fluorescence polarization competition binding assay using Bocillin-FL; read-out: P. aeruginosa PBP3 Potency. In a few lines:
as §1

Experiment [3] has as its target T3, PBP3 from Acinetobacter baumannii (ATCC 19606) (Acinetobacter baumannii, UniProt A0ABX6CK25).
T3 sequence (A0ABX6CK25 64-610): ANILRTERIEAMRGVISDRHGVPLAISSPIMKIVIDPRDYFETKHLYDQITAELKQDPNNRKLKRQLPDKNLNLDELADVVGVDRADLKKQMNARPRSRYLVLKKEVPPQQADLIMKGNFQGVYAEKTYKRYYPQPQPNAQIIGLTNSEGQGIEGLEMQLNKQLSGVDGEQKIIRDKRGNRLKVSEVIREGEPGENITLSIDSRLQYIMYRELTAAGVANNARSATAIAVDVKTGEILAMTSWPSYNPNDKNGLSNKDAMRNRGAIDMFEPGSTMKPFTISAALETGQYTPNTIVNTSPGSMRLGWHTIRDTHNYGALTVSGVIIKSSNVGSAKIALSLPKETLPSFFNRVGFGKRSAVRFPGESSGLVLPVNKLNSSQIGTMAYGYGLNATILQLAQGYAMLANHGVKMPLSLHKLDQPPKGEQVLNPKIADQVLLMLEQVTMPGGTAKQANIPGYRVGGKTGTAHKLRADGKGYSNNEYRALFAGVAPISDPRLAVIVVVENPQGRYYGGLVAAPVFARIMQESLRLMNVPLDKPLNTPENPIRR
The experiment is described as follows: Bocillin-FL fluorescence polarization competition binding, A. baumannii PBP3. Particulars: fluorescence polarization competition binding assay using Bocillin-FL; read-out: A. baumannii PBP3 Potency. Summed up: as §1

A further experiment deals with A. baumannii ATCC 17978. The experiment is described as follows: microbe, parasite or virus in culture. It counts as cell-based. Conditions: Acinetobacter baumannii, ATCC17978, read-out: MIC, A. baumannii ATCC 17978.
Experiment [4] deals with P. aeruginosa (ΔmexAB-oprM). The experiment is described as follows: Broth microdilution MIC in iron-depleted CAMHB (IDM). The class given is cell-based. Conditions: Pseudomonas aeruginosa; iron-depleted CAMHB (IDM); […]; read-out: Minimum inhibitory concentration, P. aeruginosa ΔmexAB-oprM.
For a further experiment, the system named is P. aeruginosa CDC-0054. The experiment can be described thus: microbe, parasite or virus in culture. It counts as cell-based. Particulars: Pseudomonas aeruginosa, CDC0054, read-out: Minimum inhibitory concentration, P. aeruginosa CDC-0054.
The next experiment has as its system P. aeruginosa CDC-0090. The experiment can be described thus: microbe, parasite or virus in culture. It counts as cell-based. Particulars: Pseudomonas aeruginosa, CDC0090, read-out: Minimum inhibitory concentration, P. aeruginosa CDC-0090.
For a further experiment, the system named is A. baumannii 1258916. The experiment can be described thus: microbe, parasite or virus in culture. It counts as cell-based, Acinetobacter baumannii. Conditions: Acinetobacter baumannii, 1258916, read-out: MIC, A. baumannii 1258916.
The next experiment has as its system A. baumannii CDC-0045. The experiment is described as follows: microbe, parasite or virus in culture. The class given is cell-based. Conditions: Acinetobacter baumannii, CDC0045, read-out: MIC, A. baumannii CDC-0045.
A further experiment has as its system A. baumannii CDC-0083. The experiment is described as follows: microbe, parasite or virus in culture. The class given is cell-based. Particulars: Acinetobacter baumannii, CDC0083, read-out: MIC, A. baumannii CDC-0083.
The subject of experiment [5] is B. thailandensis ATCC 700388. The experiment is described as follows: microbe, parasite or virus in culture. The class given is cell-based. Particulars: Burkholderia thailandensis, ATCC700388, read-out: Minimum inhibitory concentration (MIC), B. thailandensis ATCC 700388.

T2 sequence (G3XD46 whole entry): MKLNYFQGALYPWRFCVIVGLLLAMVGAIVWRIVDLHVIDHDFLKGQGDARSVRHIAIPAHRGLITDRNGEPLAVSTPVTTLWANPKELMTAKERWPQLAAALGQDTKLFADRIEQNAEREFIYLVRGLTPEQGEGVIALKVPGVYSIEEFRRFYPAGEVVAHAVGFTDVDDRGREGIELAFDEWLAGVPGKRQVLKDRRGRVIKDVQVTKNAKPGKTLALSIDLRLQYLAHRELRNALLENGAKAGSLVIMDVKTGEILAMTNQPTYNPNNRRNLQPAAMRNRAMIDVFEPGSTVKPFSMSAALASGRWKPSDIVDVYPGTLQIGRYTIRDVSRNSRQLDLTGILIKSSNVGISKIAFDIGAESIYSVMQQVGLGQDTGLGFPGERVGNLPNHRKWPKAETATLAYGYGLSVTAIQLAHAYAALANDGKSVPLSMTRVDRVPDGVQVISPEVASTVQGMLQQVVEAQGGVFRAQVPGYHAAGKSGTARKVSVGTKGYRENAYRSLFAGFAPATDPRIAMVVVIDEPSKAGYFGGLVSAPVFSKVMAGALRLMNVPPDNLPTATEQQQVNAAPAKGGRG
T1 sequence (P0AD68 1-577): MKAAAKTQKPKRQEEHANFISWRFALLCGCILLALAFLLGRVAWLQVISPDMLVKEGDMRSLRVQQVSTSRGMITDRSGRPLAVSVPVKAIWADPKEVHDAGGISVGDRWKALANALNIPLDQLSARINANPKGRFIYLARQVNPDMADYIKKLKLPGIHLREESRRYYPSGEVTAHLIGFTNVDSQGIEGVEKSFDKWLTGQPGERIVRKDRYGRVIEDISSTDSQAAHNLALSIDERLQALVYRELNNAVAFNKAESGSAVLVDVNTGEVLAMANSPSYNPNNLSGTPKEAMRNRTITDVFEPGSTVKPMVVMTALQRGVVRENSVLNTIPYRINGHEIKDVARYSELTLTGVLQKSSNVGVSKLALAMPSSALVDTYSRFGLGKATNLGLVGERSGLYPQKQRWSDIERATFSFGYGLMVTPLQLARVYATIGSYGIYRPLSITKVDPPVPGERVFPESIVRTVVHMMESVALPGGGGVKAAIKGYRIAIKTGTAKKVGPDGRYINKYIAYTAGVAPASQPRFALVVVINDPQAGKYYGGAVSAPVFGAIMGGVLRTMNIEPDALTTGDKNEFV

Consider `O=C(NCCS(=O)(=O)N1CCN(C(=O)N[C@H](C(=O)N[C@H]2Cc3ccc(F)c(C(=O)O)c3OB2O)c2cc(F)c(O)c(O)c2Cl)C1=O)c1ccc(O)cc1` [Example 286, (R)-3-((S)-2-(2-chloro-5-fluoro-3,4-dihydroxyphenyl)-2-(3-((2-(4-hydroxybenzamido)ethyl)sulfonyl)-2-oxoimidazolidine-1-carboxamido)acetamido)-7-fluoro-2-hydroxy-3,4-dihydro-2H-benzo[e][1,2]oxaborinine-8-carboxylic acid], for which, in experiment [1], the EC50 – broadly, the concentration that produces a half-maximal response – is above 250 µM. For the same molecule, the IC50 was above 250 µM in experiment [2] and 50 to 250 µM in experiment [3]. Also, the MIC (in the experiment on A. baumannii ATCC 17978; in experiment [4]; with P. aeruginosa CDC-0054; in the experiment on P. aeruginosa CDC-0090; in the experiment on A. baumannii 1258916; with A. baumannii CDC-0045) was above 128 µg/mL in each case. The MIC (in the experiment on A. baumannii CDC-0083; in experiment [5]) was above 128 µg/mL throughout.
In the case of `O=C(NCCS(=O)(=O)N1CCN(C(=O)N[C@@H](C(=O)N[C@H]2Cc3ccc(F)c(C(=O)O)c3OB2O)c2cc(F)c(O)c(O)c2Cl)C1=O)c1ccc(O)cc1` [Example 287, (R)-3-((R)-2-(2-chloro-5-fluoro-3,4-dihydroxyphenyl)-2-(3-((2-(4-hydroxybenzamido)ethyl)sulfonyl)-2-oxoimidazolidine-1-carboxamido)acetamido)-7-fluoro-2-hydroxy-3,4-dihydro-2H-benzo[e][1,2]oxaborinine-8-carboxylic acid], the EC50 in experiment [1] was below 10 µM. Further, the IC50 in experiment [2] and in experiment [3] was below 10 µM throughout. Further, the MIC in the experiment on A. baumannii ATCC 17978 was below 1 µg/mL; in experiment [4] it was below 1 µg/mL; in the experiment on P. aeruginosa CDC-0054, 2 to 4 µg/mL (≈ 2.56 to 5.12 µM); in the experiment on P. aeruginosa CDC-0090, 2 to 4 µg/mL (≈ 2.56 to 5.12 µM); in the experiment on A. baumannii 1258916 it was below 1 µg/mL; in the experiment on A. baumannii CDC-0045, below 1 µg/mL. Moreover, the MIC with A. baumannii CDC-0083 was below 1 µg/mL; in experiment [5], 2 to 4 µg/mL (≈ 2.56 to 5.12 µM).
Turning to `O=C(NCCS(=O)(=O)N1CCN(C(=O)NC(C(=O)N[C@H]2Cc3ccc(F)c(C(=O)O)c3OB2O)c2cc(F)c(O)c(O)c2Cl)C1=O)c1ccncc1` (stereo partly drawn) [Example 288, (3R)-3-(2-(2-chloro-5-fluoro-3,4-dihydroxyphenyl)-2-(3-((2-(isonicotinamido)ethyl)sulfonyl)-2-oxoimidazolidine-1-carboxamido)acetamido)-7-fluoro-2-hydroxy-3,4-dihydro-2H-benzo[e][1,2]oxaborinine-8-carboxylic acid], the EC50 in experiment [1] is below 10 µM. For the same molecule, the IC50 in experiment [2] and in [3] was below 10 µM in each case. For the same molecule, the MIC was below 1 µg/mL with A. baumannii ATCC 17978; below 1 µg/mL in experiment [4]; 2 to 4 µg/mL (≈ 2.61 to 5.22 µM) in the experiment with P. aeruginosa CDC-0054; 2 to 4 µg/mL (≈ 2.61 to 5.22 µM) in the experiment on P. aeruginosa CDC-0090; below 1 µg/mL with A. baumannii 1258916; below 1 µg/mL in the experiment with A. baumannii CDC-0045. The MIC in the experiment on A. baumannii CDC-0083 was below 1 µg/mL; in experiment [5] it was 2 to 4 µg/mL (≈ 2.61 to 5.22 µM).
`O=C(NCCS(=O)(=O)N1CCN(C(=O)NC(C(=O)N[C@H]2Cc3ccc(F)c(C(=O)O)c3OB2O)c2cc(F)c(O)c(O)c2Cl)C1=O)Nc1ccc(O)cc1` (stereo partly drawn) [Example 289, (3R)-3-(2-(2-chloro-5-fluoro-3,4-dihydroxyphenyl)-2-(3-((2-(3-(4-hydroxyphenyl)ureido)ethyl)sulfonyl)-2-oxoimidazolidine-1-carboxamido)acetamido)-7-fluoro-2-hydroxy-3,4-dihydro-2H-benzo[e][1,2]oxaborinine-8-carboxylic acid]: the EC50 in experiment [1] was below 10 µM. Also, the IC50 in experiment [2] and in experiment [3] was below 10 µM throughout. Also, the MIC in the experiment with A. baumannii ATCC 17978 was below 1 µg/mL; in experiment [4], below 1 µg/mL; in the experiment with P. aeruginosa CDC-0054, 2 to 4 µg/mL (≈ 2.51 to 5.02 µM); in the experiment with P. aeruginosa CDC-0090, 2 to 4 µg/mL (≈ 2.51 to 5.02 µM); in the experiment with A. baumannii 1258916, below 1 µg/mL; in the experiment on A. baumannii CDC-0045, 2 to 4 µg/mL (≈ 2.51 to 5.02 µM). Further, the MIC with A. baumannii CDC-0083 is below 1 µg/mL; in experiment [5] it was 8 to 16 µg/mL (≈ 10 to 20.1 µM).
In turn, `O=C(NCCS(=O)(=O)N1CCN(C(=O)N[C@@H](C(=O)N[C@H]2Cc3ccc(F)c(C(=O)O)c3OB2O)c2cc(F)c(O)c(O)c2Cl)C1=O)Nc1ccncc1` [Example 290, (R)-3-((R)-2-(2-chloro-5-fluoro-3,4-dihydroxyphenyl)-2-(2-oxo-3-((2-(3-(pyridin-4-yl)ureido)ethyl)sulfonyl)imidazolidine-1-carboxamido)acetamido)-7-fluoro-2-hydroxy-3,4-dihydro-2H-benzo[e][1,2]oxaborinine-8-carboxylic acid] gave an EC50 in experiment [1] below 10 µM. Further, the IC50 in experiment [2] and in experiment [3] was below 10 µM each time. Moreover, the MIC in the experiment on A. baumannii ATCC 17978 is below 1 µg/mL; in experiment [4] it was below 1 µg/mL; with P. aeruginosa CDC-0054 it was 2 to 4 µg/mL (≈ 2.56 to 5.12 µM); in the experiment with P. aeruginosa CDC-0090 it was 2 to 4 µg/mL (≈ 2.56 to 5.12 µM); with A. baumannii 1258916 it was below 1 µg/mL; in the experiment on A. baumannii CDC-0045 it was below 1 µg/mL. Also, the MIC in the experiment on A. baumannii CDC-0083 was below 1 µg/mL; in experiment [5] it was 2 to 4 µg/mL (≈ 2.56 to 5.12 µM).
As to `O=C(NCCCS(=O)(=O)N1CCN(C(=O)NC(C(=O)N[C@H]2Cc3ccc(F)c(C(=O)O)c3OB2O)c2cc(F)c(O)c(O)c2Cl)C1=O)Nc1ccncc1` (stereo partly drawn) [Example 291, (3R)-3-(2-(2-chloro-5-fluoro-3,4-dihydroxyphenyl)-2-(2-oxo-3-((3-(3-(pyridin-4-yl)ureido)propyl)sulfonyl)imidazolidine-1-carboxamido)acetamido)-7-fluoro-2-hydroxy-3,4-dihydro-2H-benzo[e][1,2]oxaborinine-8-carboxylic acid], in [1], the EC50 is below 10 µM. The IC50 in experiment [2] and in experiment [3] was below 10 µM in each case. The MIC with A. baumannii ATCC 17978 is below 1 µg/mL; in [4], below 1 µg/mL; in the experiment on P. aeruginosa CDC-0054, 2 to 4 µg/mL (≈ 2.51 to 5.03 µM); in the experiment with P. aeruginosa CDC-0090, 2 to 4 µg/mL (≈ 2.51 to 5.03 µM); with A. baumannii 1258916 it was below 1 µg/mL; in the experiment on A. baumannii CDC-0045, 2 to 4 µg/mL (≈ 2.51 to 5.03 µM). Further, the results for the MIC (in the experiment on A. baumannii CDC-0083; in [5]) were below 1 µg/mL and 2 to 4 µg/mL (≈ 2.51 to 5.03 µM), respectively.
In turn, `O=C(O)c1c(F)ccc2c1OB(O)[C@@H](NC(=O)C(NC(=O)N1CCN(Cc3ccc(O)c(O)c3Cl)C(=O)C1=O)c1cc(F)c(O)c(O)c1Cl)C2` (stereo partly drawn) [Example 292, (3R)-3-(2-(4-(2-chloro-3,4-dihydroxybenzyl)-2,3-dioxopiperazine-1-carboxamido)-2-(2-chloro-5-fluoro-3,4-dihydroxyphenyl)acetamido)-7-fluoro-2-hydroxy-3,4-dihydro-2H-benzo[e][1,2]oxaborinine-8-carboxylic acid] came in with an EC50 in experiment [1] below 10 µM. The IC50 in [2] and in experiment [3] was below 10 µM each time. Also, the MIC in the experiment with A. baumannii ATCC 17978 was below 1 µg/mL; in experiment [4], below 1 µg/mL; with P. aeruginosa CDC-0054, below 1 µg/mL; with P. aeruginosa CDC-0090 it was below 1 µg/mL; in the experiment with A. baumannii 1258916, above 128 µg/mL; with A. baumannii CDC-0045, above 128 µg/mL. The MIC (with A. baumannii CDC-0083; in experiment [5]) was above 128 µg/mL each time.
For the molecule `O=C(O)c1c(F)ccc2c1OB(O)[C@@H](NC(=O)C(NC(=O)N1CCN(C3CCN(C(=O)c4cccc(O)c4)CC3)C(=O)C1=O)c1cc(F)c(O)c(O)c1Cl)C2` (stereo partly drawn) [Example 293, (3R)-3-(2-(2-chloro-5-fluoro-3,4-dihydroxyphenyl)-2-(4-(1-(3-hydroxybenzoyl)piperidin-4-yl)-2,3-dioxopiperazine-1-carboxamido)acetamido)-7-fluoro-2-hydroxy-3,4-dihydro-2H-benzo[e][1,2]oxaborinine-8-carboxylic acid], the EC50 in [1] was below 10 µM. The IC50 in [2] and in experiment [3] was below 10 µM throughout. The MIC is below 1 µg/mL with A. baumannii ATCC 17978; below 1 µg/mL in [4]; below 1 µg/mL with P. aeruginosa CDC-0054; 2 to 4 µg/mL (≈ 2.54 to 5.09 µM) in the experiment on P. aeruginosa CDC-0090; below 1 µg/mL in the experiment on A. baumannii 1258916; below 1 µg/mL in the experiment with A. baumannii CDC-0045. For the same molecule, the MIC (in the experiment with A. baumannii CDC-0083; in experiment [5]) was below 1 µg/mL in each case.
